Tests used:
BRD4 (His-Brd4(44-477)) = BRD4 (His-Brd4(44-477)) (Homo sapiens (Human), UniProt O60885); test: TR-FRET in-vitro binding assay for BRD4; details: acetyl-histone H4 peptide
Protocol: All assays were performed in 384 well microtiter plates. Each assay plate contained 8-point serial dilutions for 40 test compounds, plus 16 high- and 16 low controls. Liquid handling and incubation steps were done on an Innovadyne Nanodrop Express equipped with a robotic arm (Thermo CatX, Perkin Elmer/Caliper Twister II) and an incubator (Liconic STX40, Thermo Cytomat 2C450). The assay plates were prepared by addition of 50 nl per well of compound solution in 90% DMSO HummingBird nanodispenser (Zinsser Analytic). […] Reactions were incubated at 30° C. for 35 minutes. […] After 35 minutes incubation at 30° C., plates were measured in a Perkin Elmer EnVision multilabel reader.
(§1) Test compounds were dissolved in DMSO (10 mM) and transferred into 1.4 mL flat bottom or V-shaped Matrix tubes carrying a unique 2D matrix. The stock solutions were stored at […] if not used immediately. For the test procedure the vials were defrosted and identified by a scanner whereby a working sheet was generated that guided the subsequent working steps. Compound dilutions were made in 96 well plates. This format enabled the assay of maximally 40 individual test compounds at 8 concentrations (single points) including 4 reference compounds, if desired (known BET inhibitors from the prior art, for this and other assays of the type disclosed herein). The dilution protocol included the production of “pre-dilution plates”, “master plates” and “assay plates”.
(§2) Pre-dilution plates: 96 polypropylene well plates were used as pre-dilution plates. A total of 4 pre-dilution plates were prepared including 10 test compounds each on the plate positions A1-A10, one standard compound at A11 and one DMSO control at A12. All dilution steps were done on a HamiltonSTAR robot. […] These plates were used directly for the assay which was performed in a total volume of 13.55 μL. […] Cell Growth Inhibition Assay

[1] = biological target: CREBBP bromodomain (His-CREBBP (1081-1197)) (Homo sapiens (Human), UniProt Q92793); test: AlphaScreen in-vitro binding assay for CREBBP; details: acetyl-histone H4 peptide
Chain of CREBBP bromodomain (His-CREBBP (1081-1197)) (Q92793 1081-1197): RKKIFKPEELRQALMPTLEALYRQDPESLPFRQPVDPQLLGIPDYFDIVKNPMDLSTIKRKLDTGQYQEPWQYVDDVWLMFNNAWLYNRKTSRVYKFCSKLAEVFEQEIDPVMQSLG
Protocol: In order to assess bromodomain selectivity, we set up a binding assay using the bromodomain encoded by the CREBBP gene. […] Reactions were incubated at 30° C. for 35 minutes. Subsequently 4.5 μl per well detection mix (50 mM HEPES, pH 7.5, 0.005% Tween20, 0.02% BSA, 150 mM NaCl, 45 μg/ml Ni-chelate acceptor beads, 45 μg/ml streptavidin-donor beads) (Perkin Elmer)) were added. After 60 minutes incubation at room temperature, plates were measured in a Perkin Elmer EnVision multilabel reader. IC50 values were determined from percent inhibition values at different compound concentrations by non-linear regression analysis.
as §1, §2

MV-4-11 cells = test: Cell growth inhibition assay (CellTiter-Glo), MV-4-11; format: cell-based, human; details: MV-4-11, 4 days; for GI50: half-maximal growth inhibition; for MV-4-11 TGI: total growth inhibition
Protocol: (§3) The human leukemia cell lines MV-4-11, THP-1 and K-562 were employed to characterize the effect of BET inhibitors on cellular proliferation and viability. Cells were obtained from the American Type Culture Collection (ATCC) and cultured at 37° C. in a humidified 5% CO2 incubator in the following media: MV-4-11: DMEM high glucose (Animed #1-26F01-I), 10% FCS (Animed #2-01F26-I), 4 mM L-Glutamine (Animed #5-10K50), 1 mM Sodium Pyruvate (Animed # G03625P), 1× Penicillin-Streptomycin (Animed # F12478P); K-562: Iscove's MEM (Animed #1-28F16-I), 10% FCS (Animed #2-01F26-I), 4 mM L-Glutamine (Animed #5-10K50), 1× Penicillin-Streptomycin (Animed # F12478P); THP-1: RPMI-1640 (Animed #1-41F01-I), 10% FCS (Animed #2-01F26-I), 2 mM L-Glutamine (Animed #5-10K50), 10 mM HEPES (Animed #5-31F100), 1 mM Sodium Pyruvate (Animed # G03625P), 1× Penicillin-Streptomycin (Animed # F12478P). The AML lines MV-4-11 and THP-1 are very sensitive to BET inhibitors and show massive cell death upon BET inhibition (Zuber et al., Nature, 478 (2011), 524-8). Compound-mediated suppression of cell proliferation/viability was assessed by quantification of cellular ATP levels using the CellTiter-Glo (CTG) reagent (Promega). Briefly, cells were seeded in 20 μl fresh medium into 384-well plates, followed by addition of 5 μl medium containing compound dilutions at 5-fold their final intended concentration. Dose-response effects were assessed by 3-fold serial dilutions of the test compound, starting at 10 μM. Following incubation of the cells for 4 days at 37° C. and 5% CO2, the effect of inhibitors on cell viability was quantified following addition of 20 μl CTG and luminescence quantification (integration time: 100 ms) as per vendor manual, using a correspondingly equipped Tecan M200 multi-mode platereader (TECAN, Switzerland). For data analysis, the assay background value determined in wells containing medium, but no cells, was subtracted from all data points. To enable differentiation of cytotoxic from cytostatic compounds, the number of viable cells is assessed relative to that observed at the time of compound addition using a separate cell plate (day 0). The effect of a particular test compound concentration on cell proliferation/viability is expressed as percentage of the background- and day 0-corrected luminescence reading obtained for cells treated with vehicle only (DMSO, 0.1% final concentration), which is set as 100%, whereas that luminescence reading for wells containing medium is set as −100%. Compound concentrations leading to half-maximal (1050) and total growth inhibition (TGI) were determined using standard four parameter curve fitting.

K-562 cells = test: Cell growth inhibition assay (CellTiter-Glo), K-562; format: cell-based, human; details: K-562, 4 days; for GI50: half-maximal growth inhibition; for K-562 TGI: total growth inhibition
Protocol: as §3

| SMILES | IC50 (BRD4 (His-Brd4(44-477))) | IC50 [1] | GI50 (MV-4-11 cells; Homo sapiens, MV4-11, 96 h) | MV-4-11 TGI (MV-4-11 cells) | GI50 (K-562 cells; Homo sapiens, K562, 96 h) | K-562 TGI (K-562 cells) | GI50 (MV-4-11 cells) | GI50 (K-562 cells) |
| --- | --- | --- | --- | --- | --- | --- | --- | --- |
| Cc1cc(N2C(=O)c3c(C4CC4)nn(C)c3C2c2ccc(Cl)cc2)cn(C)c1=O (stereo not shown) [Example 1, 6-(4-chlorophenyl)-3-cyclopropyl-5-(1,5-dimethyl-6-oxo-1,6-dihydropyridin-3-yl)-1-methyl-5,6-dihydropyrrolo[3,4-c]pyrazol-4(1H)-one] | 0.028 µM | 1.4 µM | 0.0246 µM | 0.0412 µM | 0.141 µM | >10 µM | – | – |
| CNC1=C(C(=N)C2CC2)C(=O)N(c2cc(C)c(=O)n(C)c2)[C@@H]1c1ccc(Cl)cc1 [Example 2] | 0.016 µM | 1.2 µM | – | 0.0303 µM | – | >10 µM | 0.0154 µM | 0.121 µM |
| Cc1cc(N2C(=O)c3c(C4CC4)nn(CCO)c3C2c2ccc(Cl)cc2)cn(C)c1=O (stereo not shown) [Example 3, 6-(4-chlorophenyl)-3-cyclopropyl-5-(1,5-dimethyl-6-oxo-1,6-dihydropyridin-3-yl)-1-(2-hydroxyethyl)-5,6-dihydropyrrolo[3,4-c]pyrazol-4(1H)-one] | 0.043 µM | – | 0.0375 µM | 0.064 µM | 0.268 µM | >10 µM | – | – |
| COCCn1nc(C2CC2)c2c1C(c1ccc(Cl)cc1)N(c1cc(C)c(=O)n(C)c1)C2=O (stereo not shown) [Example 4, 6-(4-chlorophenyl)-3-cyclopropyl-5-(1,5-dimethyl-6-oxo-1,6-dihydropyridin-3-yl)-1-(2-methoxyethyl)-5,6-dihydropyrrolo[3,4-c]pyrazol-4(1H)-one] | 0.014 µM | 3 µM | 0.0205 µM | 0.0336 µM | 0.109 µM | >10 µM | – | – |
| Cc1cc(N2C(=O)c3c(C4CC4)nn(-c4ccnn4C)c3C2c2ccc(Cl)cc2)cn(C)c1=O (stereo not shown) [Example 5, 6-(4-chlorophenyl)-3-cyclopropyl-5-(1,5-dimethyl-6-oxo-1,6-dihydropyridin-3-yl)-1-(1-methyl-1H-pyrazol-5-yl)-5,6-dihydropyrrolo[3,4-c]pyrazol-4(1H)-one] | 0.096 µM | 5 µM | 0.0538 µM | 0.1 µM | 0.658 µM | >10 µM | – | – |
| Cc1[nH]nc2c1C(=O)N(c1cc(Cl)c(=O)n(C)c1)C2c1ccc(Cl)cc1 (stereo not shown) [Example 6, 5-(5-chloro-1-methyl-6-oxo-1,6-dihydropyridin-3-yl)-6-(4-chlorophenyl)-3-methyl-5,6-dihydropyrrolo[3,4-c]pyrazol-4(2H)-one] | 0.12 µM | 4.1 µM | 0.0741 µM | 0.134 µM | 0.558 µM | >10 µM | – | – |
| COc1ncccc1-n1nc2c(c1C)C(=O)N(c1cc(Cl)c(=O)n(C)c1)C2c1ccc(Cl)cc1 (stereo not shown) [Example 7b, 5-(5-chloro-1-methyl-6-oxo-1,6-dihydropyridin-3-yl)-6-(4-chlorophenyl)-2-(2-methoxypyridin-3-yl)-3-methyl-5,6-dihydropyrrolo[3,4-c]pyrazol-4(2H)-one] | 0.041 µM | 1.9 µM | 0.0567 µM | 0.0824 µM | 0.548 µM | >10 µM | – | – |
| COc1ncc(-n2nc(C)c3c2C(c2ccc(Cl)cc2)N(c2cc(Cl)c(=O)n(C)c2)C3=O)cn1 (stereo not shown) [Example 8a, 5-(5-chloro-1-methyl-6-oxo-1,6-dihydropyridin-3-yl)-6-(4-chlorophenyl)-1-(2-methoxypyrimidin-5-yl)-3-methyl-5,6-dihydropyrrolo[3,4-c]pyrazol-4(1H)-one] | 0.17 µM | > 37 µM | 0.141 µM | 0.294 µM | 0.991 µM | >10 µM | – | – |
| COc1ncc(-n2nc3c(c2C)C(=O)N(c2cc(Cl)c(=O)n(C)c2)C3c2ccc(Cl)cc2)cn1 (stereo not shown) [Example 8b, 5-(5-chloro-1-methyl-6-oxo-1,6-dihydropyridin-3-yl)-6-(4-chlorophenyl)-2-(2-methoxypyrimidin-5-yl)-3-methyl-5,6-dihydropyrrolo[3,4-c]pyrazol-4(2H)-one] | 0.21 µM | 5.4 µM | 0.117 µM | 0.195 µM | 0.999 µM | >10 µM | – | – |
| Cc1nn(C)c2c1C(=O)N(c1cc(C)c(=O)n(C)c1)C2c1ccc(Cl)cc1 (stereo not shown) [Example 10, 6-(4-chlorophenyl)-5-(1,5-dimethyl-6-oxo-1,6-dihydropyridin-3-yl)-1,3-dimethyl-5,6-dihydropyrrolo[3,4-c]pyrazol-4(1H)-one] | 0.089 µM | 3 µM | 0.0394 µM | 0.0655 µM | 0.336 µM | >10 µM | – | – |
| COc1ccc(-n2nc(C)c3c2C(c2ccc(Cl)cc2)N(c2cc(C)c(=O)n(C)c2)C3=O)cn1 (stereo not shown) [Example 20b, 6-(4-chlorophenyl)-5-(1,5-dimethyl-6-oxo-1,6-dihydropyridin-3-yl)-1-(6-methoxypyridin-3-yl)-3-methyl-5,6-dihydropyrrolo[3,4-c]pyrazol-4(1H)-one] | 0.056 µM | – | 0.0386 µM | 0.0542 µM | 0.239 µM | >10 µM | – | – |

— patent US9714249B2 (Novartis AG, priority 2013, dated 2017)
